Experimental data: patent US20230203126A1, “A COMPOSITION COMPRISING S-ARRESTIN PEPTIDES” (WORG PHARMACEUTICALS (HANGZHOU) CO., LTD., priority 2019, published 2023)
Values joined by “and” are separate entries in the source; they are usually repeats but may differ in a detail not shown here. Identical values can stand only once. No end group written: not given here.

Test system: S-Ag-induced cell activation (IFNy production of LN cells and splenocytes)
Assay: Ex vivo tolerization experiment (DR3tg mice)
Type: in vivo
Settings: for reduction of S-Ag-induced cell activation (IFNy) in spleens: dose escalation to 15 nmol per peptide s.c., cocktail vs single peptide, vs control group, two independent experiments (FIG. 7); for reduction of S-Ag-induced cell activation (IFNy) in lymph nodes / reduction of S-Ag-induced cell activation (IFNy) in spleen: single peptide escalating dose s.c., vs PBS; for reduction of S-Ag-induced cell activation (IFNy) in lymph nodes: 10 days after immunization (FIG. 5A, 6A); for reduction of S-Ag-induced cell activation (IFNy) in spleen: 10 days after immunization (FIG. 5B, 6B)
Experimental: (§1) FIG. 5: 17JK alone induces tolerance towards S-Ag protein in DR3tg mice. Mice were injected subcutaneously in the flank with 0,1 µg/ml, 1 µg/ml and 10 µg/ml 17JK on days -15, -13 and -11, followed by 3 injections of 100 µg/ml on days -8, -6 and -4 (escalating dose regime). On day 0, mice were immunized subcutaneously at the base of the tail with antigen/CFA. Mice were sacrificed 10 days after immunization to measure activation of LN cells and splenocytes upon S-Ag restimulation. IFNy concentration was measured in the culture supernatant as an indication of cell activation. Data represent mean ± SEM of the concentration of IFNy for the PBS-treated mice (black lines) and 17JK-treated mice (grey lines). Two-way ANOVA was used to measure overall treatment effects on T cell activation. Dunnett’s multiple comparisons test was used and significant differences are indicated in the graphs (** p<0.01; *** p<0.001). The % inhibition of IFNy production as compared to the control group is indicated in the graphs. (A) Tolerization against S-Ag in LN. IFNy production expressed as IFNy concentration (pg/ml). (B) Tolerization against S-Ag in spleen. IFNy production expressed as IFN-y concentration (pg/ml). LN, lymph nodes. Data representative of 3 independent experiments.
as §1, with “FIG. 6: 15N3K alone induces” for “FIG. 5: 17JK alone induces”, “10 µg/ml 15N3K on days” for “10 µg/ml 17JK on days”, “lines) and 15N3K-treated mice (grey” for “lines) and 17JK-treated mice (grey”, “the graphs (* p<0.05; **** p<0.0001). The %” for “the graphs (** p<0.01; *** p<0.001). The %”, “Tolerization against SAg in spleen.” for “Tolerization against S-Ag in spleen.”
FIG. 7: Treatment with peptide cocktail ATX975 reduces S-Ag-induced immune cell activation in DR3tg mice more efficiently than treatment with 17JK or 15N3K alone. Mice were injected subcutaneously in the flank with 0.015 nmol, 0.15 nmol and 1.5 nmol of peptide on days -15, -13 and -11 respectively, followed by 3 injections of 15 nmol peptide on days -8, -6 and -4 (dose escalation schedule). For treatment with the cocktail (ATX975) containing 3 peptides, these doses were given per peptide (reaching a total top dose of 45 nmol peptide). On day 0, mice were immunized subcutaneously at the base of the tail with antigen/CFA. Mice were sacrificed 10 days after immunization to measure activation of splenocytes upon SAg restimulation. Data represent mean ± SEM of the IFNy concentration for the control-treated mice (black lines) and peptide-treated mice (grey lines). Two-way ANOVA was used to measure overall treatment effects on T cell activation. Dunnett’s multiple comparisons test was used and significant differences are indicated in the graphs (* p<0.05; ** p<0.01; *** p<0.001; **** p<0.0001 as compared to the control group; ^# p<0.05, ^#### p<0.0001 as compared to the ATX975 group). The % inhibition of IFNy production as compared to the control group is indicated in the graphs. (A) Tolerization against S-Ag […]. IFN-y production expressed as IFN-y concentration (pg/ml). (B) Tolerization against S-Ag in spleen. […]

Row | Substance | reduction of S-Ag-induced cell activation (IFNy) in spleens | reduction of S-Ag-induced cell activation (IFNy) in lymph nodes [%] | reduction of S-Ag-induced cell activation (IFNy) in spleen [%]
1 | KKKVIFKKISRDKSVTIYLGKKK-NH2 [15N3K] | 74% | 61 | 72
2 | KKKLTFRRDLYFSRVQVYKKK-NH2 [17JK] | 80% and 52% | 78 | 84
